According to US20100324137A1, “LAURIC ARGINATE AS A CONTACT ANTIMICROBIAL” (DIVERSEY, INC., priority 2009, published 2010):
“And” between values parts separate entries of the source, which are not always exact repeats. Equal entries are not always repeated.

System: E. coli
Experiment: Antimicrobial effectiveness: E. coli contacted with sample for 30 seconds, survivors calculated
Format: cell-based
Conditions: 30 seconds contact
Procedure: The antimicrobial effectiveness of the present invention in combination with octenyl succinic acid was tested. In this application, the test organism was E. coli, which was contacted with either the control or the stated sample for 30 seconds, and the survivors were calculated.

Row | Compound | Percent Reduction (25 ppm active) | Survivors (25 ppm active) | Percent Reduction (50 ppm active) | Percent Reduction (75 ppm active) | Survivors (75 ppm active) | Percent Reduction (160 ppm active) | Survivors (160 ppm active) | Percent Reduction (320 ppm active) [%] | Survivors (320 ppm active) | Percent Reduction (480 ppm active) [%] | Survivors (480 ppm active)
1 | CCCCCCCCCCCC(=O)N[C@@H](CCCN=C(N)N)C(=O)OCC [LA, ethyl lauroyl arginate] | 96.494% and 96.299% | 5,400,000 org/ml and 5,700,000 org/ml | 99.851% and 99.926% | 99.979% and 99.975% | 33,000 org/ml and 39,000 org/ml |  |  |  |  |  | 
2 | octenyl succinic acid [OSA] |  |  |  |  |  | 84.351% and 84.805% | 24,100,000 org/ml and 23,400,000 org/ml | 99.999 | 2,000 org/ml and 2,200 org/ml | 99.999 | 1,900 org/ml and 1,920 org/ml
